{
  "source": "paper PMC3211509",
  "about": "(Nanoscale Research Letters, 2011)",
  "key": {"[1]": {"set-up": "method as in printed", "conditions": "ref not given; cited from earlier work"}, "[2]": {"system": "spontaneously hypertensive rats", "set-up": "method as in printed", "conditions": "reported, ref not given; cited from earlier work"}, "[3]": {"assay": "Drug absorbed in vivo after oral dose (Wagner-Nelson equation)", "conditions": "rat, 30 mg/kg, at Cmax", "excerpt": "A model based on the Wagner-Nelson (W-N) equation was established in-house and was used to calculate the drug absorbed to further assess the amount of drug absorbed as a function of time. The utilization of the W-N equation allows us to obtain all the drug that is absorbed (including excreted) at different time points. This allowed us to estimate the relationship and the impact on the absorption on the surface area changes of the drug. [drawing 2] [drawing 3]\nwhere A is the drug absorbed, V is the volume of distribution, Cp is the plasma concentration, K is the elimination rate constant, and t is time.\nIn order to understand the degree of improvement provided by an oral nanosuspension formulation, simulations were performed using a Wagner-Nelson equation-based model that was established in-house in order to assess the amount of drug absorbed (dA) as a function of time. In this model, the stomach empting time was taking into consideration. […] The unit surface area by weight (A/W) was calculated to estimate the surface area reduction after the absorption took place, and the total residual surface area (RA) was calculated for each time point. The absorption efficiency (AE) was calculated by taking the ratio of the amount of drug available and was divided by the RA (AE = W/RA), and the absorption constant (K) was calculated as AE/δT. […]"}, "[4]": {"set-up": "method as in earlier work", "conditions": "oral, 1 compartment, first-order elimination ref 15; cited from earlier work"}, "[5]": {"system": "human vascular smooth muscle (VSM) cell", "set-up": "method as in PMID 11090543, PMID 11842228", "conditions": "cited from earlier work"}},
  "data": [
    {"smiles": "O=C(NC1CCCCC1)NC1CCCCC1", "note": "[DCU, 1,3-Dicyclohexylurea]", "values": [
      {"measurement": "free fraction in plasma (unbound)", "setting": "[1]", "value": 3, "unit": "%"},
      {"measurement": "effect on systemic blood pressure", "setting": "[2]", "value": "lower systemic blood pressure"},
      {"measurement": "Drug absorbed, In vivo (Wagner-Nelson equation)", "setting": "[3]", "value": 1.1, "unit": "mg"},
      {"measurement": "K01 (absorption rate constant)", "setting": "[4]", "value": 26.3, "unit": "h⁻¹"},
      {"measurement": "K10 (elimination rate constant)", "setting": "[4]", "value": 0.277, "unit": "h⁻¹"},
      {"measurement": "Vf", "setting": "[4]", "value": 5.8, "unit": "L"},
      {"measurement": "human VSM cell proliferation", "setting": "[5]", "value": "inhibits human vascular smooth muscle (VSM) cell proliferation in a dose-dependent manner"}
    ]}
  ]
}
